Experiments:
[1] = system: intraarticular opioid receptors; test: Intraarticular injection after arthroscopic surgery of the knee; assay type: in vivo, human; settings: injected in the knee after arthroscopic surgery
[2] = system: patients who had acute shingles; test: Analgesia for shingles, morphine spray; assay type: in vivo, human
Description: Other patients who were helped were those who had acute shingles which would produce excruciating pain on the chest.

[3] = system: patients who had burns from radiation therapy
[4] = system: children undergoing tonsillectomy; test: Analgesia for postsurgical pain after tonsillectomy, morphine spray on tonsil beds; assay type: in vivo, human; settings: spray in saline on the tonsil beds after surgery; able to swallow and eat ice cream same day
Description: The morphine spray in saline was used on the tonsil beds after surgery in children undergoing tonsillectomy.

[5] = system: patients who had undergone failed back operations; settings: 1-3 mg on the back, ultrasound, massage, heat, Aquaphor vehicle; cited from earlier work
[6] = after two or three days of using the spray

Which “Duration of relief after surgery” value [1] does the source give for CCCCN1CCCCC1C(=O)Nc1c(C)cccc1C (centres unmarked) [Marcaine] here?
The value was no more than 12 h.

With CN1CC[C@]23c4c5ccc(O)c4O[C@H]2[C@@H](O)C=C[C@H]3[C@H]1C5.O=S(=O)(O)O [Morphine, morphine sulfate] as the molecule, how does the Healing [2, 6] read?
Its Healing is “healed faster”.

And the Post-herpetic neuralgia [2, 6]?
The Post-herpetic neuralgia was “without any post-herpetic neuralgia”.

And the “Pain of acute shingles” value ([2]; spray, typically three times a day)?
Its value is “significantly reduced”.

What about the “Relief of pain, patients with pain on the tongue or in the mouth due to radiation burns” value ([3]; compared with skin radiation burn patients) of the same molecule?
The value was “same experience”.

And the “Time able to sit to do exercises after topical application” value ([3]; one patient with severe burns on the buttocks, could not sit before)?
The value was “an hour and a half”.

What about the “Relief of pain, one patient with severe burns on the buttocks (prostate cancer)” value ([3]; spray) of the same molecule?
Its value is “excellent relief of the pain”.

And the “Start of relief after topical application” value ([3]; two or three mg diluted with saline, sprayed)?
The value was 10 to 15 min.

And the Relief of pain ([3]; two or three mg diluted with saline, sprayed over inflamed area, all patients treated)?
The Relief of pain was “excellent relief of pain”.

What about the Pain after surgery [4] of the same molecule?
The Pain after surgery was “no pain after surgery”.

What about the Pain relief [5] of the same molecule?
The Pain relief was “Some improvement in pain relief”.
